Assay results as given in PubChem BioAssay AID651630 (Sanford-Burnham Center for Chemical Genomics, 2012).
Calls of active or inactive are those of the source.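 How the source made its calls: active means lipid-stain IC50 at or below a set limit, with nuclear-stain toxicity IC50 at least five times higher; inactive means the rest.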

What was measured:
[1] = tested on: TAG; test: triacylglycerol accumulation inhibitor potency, dose response, cell-based, panel, Nile Red and DAPI fluorescence, H9c2 (AID 651630); conditions: H9c2 cells, Nile Red TAG fluorescence, oleic acid;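 further: cells exposed to compound overnight before fixation and staining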
[2] = tested on: DAPI; test: as above; conditions: H9c2 cells, DAPI nuclear fluorescence (cytotoxicity counter-readout), oleic acid

Compound | IC50 ([1]; mean of runs) | IC50 ([1]; run 1) [µM] | IC50 ([1]; run 2) [µM] | IC50 cytotoxicity (DAPI nuclear signal decrease) ([2]; mean of runs) | IC50 cytotoxicity (DAPI nuclear signal decrease) ([2]; run 1) [µM] | IC50 cytotoxicity (DAPI nuclear signal decrease) ([2]; run 2) [µM]
COc1cc(NC(=O)c2csc(N)n2)cc(C(=O)Nc2cccc(C(F)(F)F)c2)c1 | 13.5 µM | 10.7 | 16.4 | > 25 µM (inactive) | > 25 | > 25
CCO[C@@H]1OC(C(=O)N2CCN(Cc3ccccc3)CC2)=C[C@H](c2ccc(C(F)(F)F)cc2)[C@H]1CCCO | 11.4 µM | 11.2 | 11.6 | > 25 µM (inactive) | > 25 | > 25
C=CC[C@@H](CC(=O)N(CCO)Cc1ccccc1)C(=O)N[C@@H](COC(=O)[C@@H](CC=C)Cc1ccc(F)cc1)Cc1ccccc1 | 9.33 µM | 8.74 | 9.91 | > 25 µM (inactive) | > 25 | > 25
COc1ccc(C(=O)Nc2ccc(Cl)cc2C(=O)NCc2ccco2)cc1 | 16.9 µM (inactive) | 16.2 | 17.7 | > 25 µM (inactive) | > 25 | > 25
O=C(Nc1cccc(-c2csc(Nc3ccc(Cl)cc3)n2)c1)c1cccc(C(F)(F)F)c1 | 15.2 µM (inactive) | 13.6 | 16.7 | > 25 µM (inactive) | > 25 | > 25
CCOC(=O)c1c(NC(C)=O)sc2c(OCC(O)CN(CC)CC)c(Br)ccc12 (centres undefined) | – | > 25 | 22.1 | > 25 µM (inactive) | > 25 | > 25
CCCCOc1ccc(CSC2=NCCN2)cc1[N+](=O)[O-] | > 25 µM (inactive) | > 25 | > 25 | > 25 µM (inactive) | > 25 | > 25
Cc1onc(-c2ccccc2)c1C(=O)Nc1cc(C(F)(F)F)ccc1N1CCOCC1 | 20.1 µM (inactive) | 15.4 | 24.8 | > 25 µM (inactive) | > 25 | > 25
CC1(C(=O)NCc2ccco2)Cc2c(-c3cccc(C(F)(F)F)c3)ccnc2O1 (centres undefined) | > 25 µM (inactive) | > 25 | > 25 | > 25 µM (inactive) | > 25 | > 25
O=C(c1ccoc1)N1CCN(c2cc(-c3ccncc3)nc3cc(-c4cccc(Cl)c4)nn23)CC1 | – | > 25 | 23.6 | > 25 µM (inactive) | > 25 | > 25
CCCCCC(/C=N/Nc1ccc(S(=O)(=O)N2CCOCC2)cc1[N+](=O)[O-])=C\c1ccccc1 | 14.4 µM | 12.8 | 15.9 | > 25 µM (inactive) | > 25 | > 25
CCOC(=O)C1=C(C)N(C[C@@H]2CC[C@@H](Cc3ccc(-c4ccccc4)cc3)O2)C(=O)NC1c1cccc2ccccc12 (some centres undefined) | 13.6 µM | 14 | 13.2 | > 25 µM (inactive) | > 25 | > 25
O=C(N/N=C/c1ccc(Cl)cc1)c1sccc1OCc1ccc(F)cc1 | > 25 µM (inactive) | > 25 | > 25 | > 25 µM (inactive) | > 25 | > 25
CCCCCCN(C(=O)CCCCCN1C(=O)NC(c2ccc([N+](=O)[O-])cc2)C(C(=O)OCc2ccccc2)=C1C)C(C(=O)NCCCC)C1CCCCC1 (centres undefined) | 5.66 µM | 3.7 | 7.62 | > 25 µM (inactive) | > 25 | > 25
O=P(O)(O)CN1CCNCCN(CP(=O)(O)O)CCNCC1 | – | 24.7 | > 25 | > 25 µM (inactive) | > 25 | > 25
Oc1cccc2cc(-c3ccncc3)cnc12 | > 25 µM (inactive) | > 25 | > 25 | > 25 µM (inactive) | > 25 | > 25
O=C(Nc1ccccc1N1CCCCC1)c1ncoc1-c1ccc(F)cc1 | > 25 µM (inactive) | > 25 | > 25 | > 25 µM (inactive) | > 25 | > 25

Compound | IC50 ([1]; mean of runs) | IC50 ([1]; run 1) [µM] | IC50 ([1]; run 2) [µM] | IC50 cytotoxicity (DAPI nuclear signal decrease) ([2]; mean of runs) | IC50 cytotoxicity (DAPI nuclear signal decrease) ([2]; run 1) [µM] | IC50 cytotoxicity (DAPI nuclear signal decrease) ([2]; run 2) [µM]
Cc1cccc(NC(=O)c2ccc([N+](=O)[O-])o2)c1C | – | 19.8 | > 25 | 10.3 µM (inactive) | 9.7 | 10.9
CN(C)CCCn1c(=O)n(CCc2ccccc2)c(=O)c2c3c(sc21)CCCCC3 | > 25 µM (inactive) | > 25 | > 25 | – | > 25 | 16.2
O=C(/C=C/Sc1ccc(C(F)(F)F)cn1)c1ccccc1 | > 25 µM (inactive) | > 25 | > 25 | – | 21 | > 25
Nc1ccccc1C#Cc1ccccc1 | 10.9 µM | 8.79 | 13.1 | > 25 µM (inactive) | > 25 | > 25
O=C(Nc1ccc(-c2csc(Nc3ccc(Cl)cc3)n2)cc1)c1cc([N+](=O)[O-])cc(C(F)(F)F)c1 | 8.54 µM | 6.55 | 10.5 | > 25 µM (inactive) | > 25 | > 25
CC1(C)CC(=O)C2=C(C1)Oc1nc3ccccc3cc1C2C(C#N)C#N (centres undefined) | 17.2 µM (inactive) | 16.5 | 17.8 | 12.7 µM (inactive) | 11.4 | 14
CC1(C(=O)NCc2cccs2)Cc2c(-c3ccc4c(c3)OCO4)ccnc2O1 (centres undefined) | > 25 µM (inactive) | > 25 | > 25 | > 25 µM (inactive) | > 25 | > 25
CCC(C)(C)NC(=O)C(c1ccc(OC)cc1)N(CC1CCCO1)C(=O)CCC(=O)Nc1cc(C)on1 (centres undefined) | 7.02 µM | 8.17 | 5.88 | > 25 µM (inactive) | > 25 | > 25
COc1ccc(-c2cc(C(F)F)n3ncc(C(=O)Nc4cccc(S(=O)(=O)N5CCOCC5)c4)c3n2)cc1 | 13.9 µM | 17.5 | 10.4 | > 25 µM (inactive) | > 25 | > 25
COc1ccc(-c2nc(-c3ccccc3)c(-c3cc([N+](=O)[O-])ccc3C)[nH]2)cc1OC | 12.9 µM | 12 | 13.9 | > 25 µM (inactive) | > 25 | > 25
Cc1cccc(C(=O)N[C@H](C(=O)Nc2ncc(C)s2)C(C)C)c1 | 9.36 µM | 9.74 | 8.97 | – | 22.9 | > 25
C[C@H]1CN([C@@H](C)CO)C(=O)Cc2cc(NC(=O)CCC(F)(F)F)ccc2O[C@H]1CN(C)S(=O)(=O)c1ccc(Cl)cc1 | > 25 µM (inactive) | > 25 | > 25 | > 25 µM (inactive) | > 25 | > 25
CN(C)c1ccc(NC(=O)CSc2nc3ccccc3c(=O)n2C2CCCCC2)cc1 | – | > 25 | 20 | > 25 µM (inactive) | > 25 | > 25
CCOC(=O)c1ccc(NC(=O)c2nc[nH]c2C(=O)NCCCCNC(=O)c2[nH]cnc2C(=O)Nc2ccc(C(=O)OCC)cc2)cc1 | 3.89 µM | 3.09 | 4.69 | – | > 25 | > 25
NC(Cc1ccc(Cl)cc1)c1csc(NC(=O)NCCc2ccccc2)n1 (centres undefined) | > 25 µM (inactive) | > 25 | > 25 | 19.7 µM (inactive) | 19 | 20.4
Cc1ccc(Sc2cc(N3CCOCC3)nc(-c3ccccc3)n2)cc1 | > 25 µM (inactive) | > 25 | > 25 | > 25 µM (inactive) | > 25 | > 25
